Assay results as given in patent US20040120949A1, “Compositions and methods for treating cancer using cytotoxic CD44 antibody immunoconjugates and radiotherapy” (Boehringer Ingelheim International GmbH, priority 2002, published 2004).
Where “and” joins values, the source holds several entries; their conditions need not be identical. Equal entries are not always repeated.

Tests used:
cells in vitro = conditions: free drug; cited from earlier work
CD44v6 = experiment: Antigen binding affinity of humanised VFF-18 versions; parameters: species or system human
[1] = Biodistribution and tumor uptake in vivo
[2] = tested on: antigen-positive FaDu cells; experiment: In vitro binding to FaDu cells by FACS; conditions: on ice 1 hour, FITC-labeled anti-human IgG, read-out: apparent KD
Procedure: The binding of BIWA 4 antibody and BIWI 1 conjugate to antigen-positive FaDu cells was determined. Cells (1−2×10^−5) were incubated in 96-well plates with varying concentrations of antibody or conjugate on ice for 1 hour. The test article was washed from the plate and FITC-labeled anti-human IgG was added and the incubation on ice was continued in the dark for 1 hour. After washing, the cells were fixed with 1% paraformaldehyde and analyzed on a fluorescence activated cell sorter (FACS).

human FaDu SCC = experiment: Tumor growth delay and local control of FaDu tumors in nude mice, drug alone or with fractionated irradiation; type: in vivo, NMRI (nu/nu) mice; conditions: for Growth delay to 5 times the starting volume (tν5) / Growth delay to 10 times the starting volume (tV10): median
Procedure: (§1) BIWI 1, BIWA 4 and phosphate buffered saline (PBS) were applied intravenously (i.v.) in one of the tail veins. BIWI 1 was applied in doses of 50 μg and 100 μg DM1/kg body weight (b.w.)/d. Control animals were treated either with BIWA 4 (antibody control, 7 mg/kg b. w./d) or PBS.
(§2) Animals: The experiments were performed using 7-14 week old male and female NMRI (nu/nu) mice from the specific pathogen-free animal breeding facility of the Experimental Center of the Medical Faculty of the University of Dresden. The animal facilities and the experiments were approved according to the German animal welfare regulations. The microbiological status of the animals was regularly checked by the veterinarians of the facility. The animal rooms provided day light plus a 12 h light-12 h dark electric cycle (light-on time 07.00 a.m.) and a constant temperature of 26° C. and relative humidity of 50-60%. The animals were fed a commercial laboratory animal diet and water ad libitum. To immunosuppress the nude mice further, they were whole-body irradiated 2 days before tumor transplantation with 4 Gy using 200 kV X-rays (0.5 mm Cu) at a dose rate of about 1 Gy/min.
Tumor: FaDu is an established human hypopharyngeal squamous cell carcinoma line, kept in high passage by the American Type Culture Collection (Rockville, Md.). In nude mice FaDu grows as an undifferentiated carcinoma with a volume doubling time (VDT) between 100 mm^3 and 400 mm^3 of about 4 days. […] For the experiments small tumor pieces were transplanted subcutaneously (s.c.) into the right hindleg of anaesthetised mice.
(§3) Combination of BIWI 1 with fractionated irradiation: Local irradiations were given under ambient conditions without anaesthesia to air breathing animals (200 kV X-rays, 0.5 mm Cu, at a dose rate of 1.1 Gy/min). Up to five animals were irradiated simultaneously in specially designed jigs. For the treatments, the mice were immobilised in a plastic tube fixed on a lucite plate. The tumor-bearing leg was held positioned in the irradiation field by a foot-holder distal to the tumor. Tumor volume at the start of irradiation were around 100 mm^3. Tumors were irradiated with 5 fractions of 4 Gy in 5 days. The animals were randomized over the experimental matrix in groups of 5, aiming for about 15 animals (range 14 to 15 animals) for each treatment group. Irradiation protocols were started every second day. Animals received either BIWI 1 (50 μg DM1/kg/d), BIWI 1 (100 μg DM1/kg/d), BIWA 4 (7 mg/kg/d) or PBS two hours after each irradiation for 5 consecutive days. The report includes data obtained from a total of 59 irradiated tumors. In addition, 57 unirradiated FaDu tumors were treated with BIWI 1 (50 μg/kg/d), BIWI 1 (100 μg/kg/d), BIWA 4 (7 mg/kg/d) or PBS for 5 consecutive days.
Determinations of tumor volume and tumor growth delay: Animals were observed until the mean diameter of the untreated or recurrent tumors exceeded 12-15 mm, until death or until day 120 after end of treatment. Animals that appeared to suffer were killed before reaching these endpoints. Tumor diameters were measured every second day. Tumor volumes were determined by the formula of a rotational ellipsoid π/6×a×b^2, where a is the longest and b is the perpendicular shorter tumor axis. Conversion of tumor volumes to tumor mass (mg) was performed by a calibration curve based on excision weights. Tumor growth delay was determined from individual growth curves as the time that a regrowing tumor needed to reach 5 and 10 times the start volume (tv5, tv10).
Statistics: Medians and 95% confidence intervals (CI) of the tumor growth delay were calculated according to Sachs (Angewandte Statistik, 7. Aufl., Springer 1992). Experimental groups were compared using the Mann-Whitney-U test and a commercial software package (SPSS for Windows 9.0, SPSS Inc., 1999).

[3] = Tolerability in tumor-bearing nude mice; type: in vivo
Procedure: as §1, §2, §3

[4] = target: CD44v6 on antigen-positive FaDu cells (human) (UniProt P16070); experiment: flow cytometry (FACS) on antigen-positive FaDu cells, FITC-labeled anti-human IgG detection; apparent KD
[5] = BIWA 4 7 mg/kg/d + fractionated irradiation
[6] = BIWA 4 7 mg/kg/d i.v. x5 days, no irradiation
[7] = BIWA 4 7 mg/kg/d x5 days + fRT (5x4 Gy)
[8] = 50 μg DM1/kg b.w./d alone, no irradiation
[9] = 50 μg DM1/kg/d + fractionated irradiation
[10] = 50 ug DM1/kg/d i.v. x5 days, no irradiation
[11] = 50 ug DM1/kg/d x5 days + fRT (5x4 Gy)
[12] = 100 ug DM1/kg/d i.v. x5 days, no irradiation
[13] = 100 ug DM1/kg/d x5 days + fRT (5x4 Gy)

CD44v6, sequence (P16070 386-428 limits assumed): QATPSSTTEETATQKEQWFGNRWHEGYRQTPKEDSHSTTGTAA

## COc1cc2cc(c1Cl)N(C)C(=O)C[C@H](OC(=O)[C@H](C)N(C)C(=O)CCS)[C@]1(C)O[C@H]1[C@H](C)[C@@H]1C[C@@](O)(NC(=O)O1)[C@H](OC)/C=C/C=C(\C)C2 [DM1, N^2′-deacetyl-N^2′-(3-mercapto-1-oxopropyl)-Maytansine]
Cells in vitro
  concentration toxic to cells in vitro: approximately 10^−10 M

## BIWA 4: Humanised version of antibody VFF-18, CD44v6 specific; light chains SEQ ID NO:4, heavy chains SEQ ID NO:6
CD44v6
  Antigen binding affinity (comparative): significantly lower antigen binding affinity as its parent antibody VFF-18
[1]
  Biodistribution and tumor uptake in vivo: very favorable biodistribution and tumor uptake in vivo
[2]
  Kd: 1 nM
Human FaDu SCC; [5]
  Local tumor control rate at day 120: 0/14
  estimated dose modifying factor: 1.2
Human FaDu SCC; BIWA 4 7 mg/kg/d + irradiation 20 Gy in 5 fractions
  Growth delay compared with irradiated controls: slightly but significant longer growth delay
Human FaDu SCC; BIWA 4 7 mg/kg/d alone, no irradiation
  Tumor growth compared with control tumors treated with PBS: did not alter tumor growth
Human FaDu SCC; [6]
  Growth delay to 5 times the starting volume (tν5): 10,8 d
  Growth delay to 10 times the starting volume (tV10): 16.0 days
Human FaDu SCC; [7]
  Growth delay to 5 times the starting volume (tν5): 30.5 days
  Growth delay to 10 times the starting volume (tV10): 40.0 days
[3]; i.v. x5 days
  Toxicity observed after application: No toxicity was observed
[3]; irradiated and unirradiated animals, versus PBS group
  Body weight during the treatment: minor and temporary changes without significant differences

## BIWI 1
[2]
  Kd: 1.8 nM
Human FaDu SCC; 50 μg DM1/kg b.w./d + irradiation 20 Gy in 5 fractions
  tv5 and tv10 compared with irradiated tumors which received PBS or BIWA 4: clear-cut longer
Human FaDu SCC; [8]
  tv5 compared with controls: did not prolong
  tv10 compared with controls: slightly but significant longer
Human FaDu SCC; [9]
  Effect of combined treatment with fractionated irradiation (radiosensitizing efficacy): supra-additive
  Local tumor control rate at day 120: 7 out of 15
  estimated dose modifying factor: 4.1
Human FaDu SCC; 50 μg DM1/kg/d + fractionated irradiation, listed as BIWI1
  Local tumor control rate at day 120: 7/15
Human FaDu SCC; [10]
  Growth delay to 5 times the starting volume (tν5): 13.5 days
  Growth delay to 10 times the starting volume (tV10): 26.0 days
Human FaDu SCC; [11]
  Growth delay to 5 times the starting volume (tν5): 107.5 days
  Growth delay to 10 times the starting volume (tV10): >120 days
Human FaDu SCC; 100 μg DM1/kg b.w./d + irradiation 20 Gy in 5 fractions
  tv5 and tv10 compared with irradiated tumors which received PBS or BIWA 4: significant longer
Human FaDu SCC; 100 μg DM1/kg b.w./d alone, no irradiation
  Tv5 and tv10 compared to controls: substantially and significantly prolonged
Human FaDu SCC; 100 μg DM1/kg/d + fractionated irradiation
  estimated dose modifying factor: > 4.5
Human FaDu SCC; 100 μg DM1/kg/d + fractionated irradiation, 4 further controlled animals censored earlier
  Local tumor control rate at day 120: 6 out of 15 and 6/15
Human FaDu SCC; [12]
  Growth delay to 5 times the starting volume (tν5): 27.5 days
  Growth delay to 10 times the starting volume (tV10): 33.5 days
Human FaDu SCC; [13]
  Growth delay to 5 times the starting volume (tν5): >120 days
  Growth delay to 10 times the starting volume (tV10): >120 days
Human FaDu SCC; 5x 100 μg DM1/kg/d alone
  estimated kill of clonogenic FaDu cells: at least two logs
[3]; i.v. x5 days
  Toxicity observed after application: No toxicity was observed
[3]; i.v. x5 days, irradiated and unirradiated animals
  Tolerability: well tolerated
[3]; mouse, in vivo
  Body weight during the treatment: minor and temporary changes without significant differences

B1: BIWA 4 (antibody, human IgG1, kappa, V domains shown)
VH: EVQLVESGGGLVKPGGSLRLSCAASGFTFSSYDMSWVRQAPGKGLEWVSTISSGGSYTYYLDSIKGRFTISRDNAKNSLYLQMNSLRAEDTAVYYCARQGLDYWGRGTLVTVSS
VL: EIVLTQSPATLSLSPGERATLSCSASSSINYIYWYQQKPGQAPRLLIYLTSNLASGVPARFSGSGSGTDFTLTISSLEPEDFAVYYCLQWSSNPLTFGGGTKVEIKR
[4]
  Kd: 1 nM

B2: BIWI 1 (antibody, V domains shown)
VH: EVQLVESGGGLVKPGGSLRLSCAASGFTFSSYDMSWVRQAPGKGLEWVSTISSGGSYTYYLDSIKGRFTISRDNAKNSLYLQMNSLRAEDTAVYYCARQGLDYWGRGTLVTVSS
VL: EIVLTQSPATLSLSPGERATLSCSASSSINYIYWYQQKPGQAPRLLIYLTSNLASGVPARFSGSGSGTDFTLTISSLEPEDFAVYYCLQWSSNPLTFGGGTKVEIKR
modifications: maytansinoid DM1 linked by a disulfide bond through the SPP-derived thiopentanoate linker to amino functions of the antibody; DM1/MAb ratio 3.1 (average for the whole antibody; sites not stated)
[4]
  Kd: 1.8 nM
